In US7045661B2, “Crystalline forms of venlafaxine hydrochloride” (Ciba Specialty Chemicals Corporation, priority 2000, dated 2006):

Assay: Relative thermodynamic stability of crystalline forms
Type: physicochemical
Conditions: compared with the previous known Form C

## COc1ccc(C(CN(C)C)C2(O)CCCCC2)cc1.Cl (stereo not shown) [Form B, 1-[(2-dimethylamino)-1-(4-methoxyphenyl)ethyl]cyclohexanol hydrochloride]
  thermodynamic stability: thermodynamically more stable than the previous known Form C
